The values below come from patent US20110104664A1, “BIOMARKERS AND METHODS FOR DETERMINING SENSITIVITY TO MICORTUBULE-STABILIZING AGENTS” (Bristol-Myers Squibb Company, priority 2006, published 2011).

This experiment deals with invasive stage IIA-IIIB breast adenocarcinoma. Kind of experiment: CA163-080 phase II trial: pathologic complete response (pCR) in the breast after neoadjuvant ixabepilone, Sataloff classification. In kind it is in vivo, human. The procedure: CA163-080 (080 trial) is an exploratory genomic phase II study that was conducted in breast cancer patients who received ixabepilone as a neoadjuvant treatment. The primary objective of this study was to identify predictive markers of response to ixabepilone through gene expression profiling of pre-treatment breast cancer biopsies. Patients with invasive stage IIA-IIIB breast adenocarcinoma (tumor size ≧3 cm diameter) received 40 mg/m^2 ixabepilone as a 3-hour infusion on Day for up to four 21-day cycles, followed by surgery within 3-4 weeks of completion of chemotherapy. A total of 164 patients were enrolled in this study. Biopsies for gene expression analysis were obtained both pre- and post-treatment. Upon isolation of biopsies from the patients, samples were either snap frozen in liquid nitrogen or placed into RNAlater solution overnight, followed by removal from the RNAlater solution. All samples were kept at −70° C. until use.
Pathological response was assessed using the Sataloff classification system (D. Sataloff et al., J. Am. Coll. Surg., 180(3):297-306 (1995)) and used as an end point for the pharmacogenomic analysis. The pathologic response was evaluated in the primary tumor site at the end of treatment and prior to surgery by assessing histologic changes compared with baseline as following: At the primary tumor site, cellular modifications were evaluated in both the infiltrating tumoral component and in the possible ductal component, to determine viable residual infiltrating component (% of total tumoral mass); residual ductal component (% of total tumoral mass); the mitotic index. Pathologic Complete Response (pCR) in the breast only was defined as T-A, Total or near total therapeutic effect in primary site. […] The response rate was defined as the number of responders divided by the number of treated patients.
Based on the definition of Pathology Complete Response (pCR), there are 23 responders and 111 non-responders in the 080 trial. Estrogen receptor 1 (ER) was previously found to be the best single-gene predictor with negative prediction value (NPV) 92% and positive prediction value (PPV) 37%, as described in PCT Publication No. ______ (PCT Application No. PCT/US2005/043261).
The data were based on the 080 trial. Patients' ER and PR status were determined by IHC assay.

[1] abbreviates: 134 patients of the genomic dataset, 080 trial.
[2] abbreviates: ER− group of the genomic dataset.

With `C/C(=C\c1csc(C)n1)[C@@H]1C[C@@H]2O[C@]2(C)CCC[C@H](C)[C@H](O)[C@@H](C)C(=O)C(C)(C)[C@@H](O)CC(=O)N1` [ixabepilone], the “number of non-responders (no pCR)” value was found to be 111 under setting [1] and 37 under setting [2]. Moreover, the “number of responders (pCR)” value is, setting by setting: under setting [1], 23; under setting [2], 18. Further, the pCR response rate by setting is: (ER+ PR+ patients (IHC), 080 trial) 4/62 = 6%; (ER+ PR− patients (IHC), 080 trial) 4/15 = 26.7%; (ER− PR+ patients (IHC), 080 trial) 0/9 = 0%; (ER− PR− patients (IHC), 40 mg/m^2 3-hour infusion, up to four 21-day cycles, 080 trial) 20/61 = 33%; (all ER+ patients (IHC), 080 trial) 8/77 = 10.4%; (all ER− patients (IHC), 080 trial) 20/70 = 29%. The pCR response rate runs as follows: (all PR+ patients (IHC), 080 trial) 4/71 = 5.6%; (all PR− patients (IHC), 080 trial) 24/76 = 31.5%; (overall, all patients with ER and PR status, 080 trial) “Overall: 18%”.
